Measured values taken from patent publication US11787850B2, “Peptidic TGF-beta antagonists” (priority 2015, dated 2023).

Legend:
[1] = system: bleomycin-induced skin fibrosis; test: Bleomycin-induced skin fibrosis (scleroderma) mouse model; assay type: in vivo
Procedure: Wild type mice were treated with bleomycin ([…]) to induce skin fibrosis or PBS (negative control). Mice were treated with CD109 ([…]), P16 ([…]), or PBS by 100 μL subcutaneous injection every other day for 28 days for a total of 14 injections.
(§1) Mice were injected intradermally with bleomycin (5 mg) in […] PBS or PBS alone every second day for 28 days. Mice were co-injected without or with 1.0 mg recombinant CD109 protein or P16 peptide every second day for 28 days (14 mg total). Skin tissue was harvested and immunohistochemical analysis was performed for the detection of Fibronectin, α-sma, CTGF and Type-1 Collagen. Representative images of sections of skin derived from CD109 and p16 treated mice on day 28 after initial bleomycin or PBS treatment are shown. A total of 4-6 different mice per treatment group were analyzed. Original magnification x 20.
as §1, with “phospho-Smad2, phospho-Smad1” for “Fibronectin, α-sma, CTGF”, “TGF-β levels.” for “Type-1 Collagen.”

[2] = system: cancer stem cells (CD133 positive cells), epidermoid A431; test: Flow cytometry of CD133 positive cells, A431; assay type: cell-based; conditions: 10 nM, 100 pM TGF-b1, 24 hours (FIG. 39)
Procedure: (§2) A431 cancer cells (8000 cells) were seeded on a BioCoat™ Matrigel® Invasion Chamber and treated with 10 nM of P16.2 (negative peptide control), P16 or PA in the absence or presence of 100 pM TGF-b, followed by 24 hrs of incubation. Invasive cells (in the lower chambers) were stained by crystal violet dye, photographed and counted. Representative photos (A) and statistical plots of invasion (B) are shown. The data are shown as mean±SD of the number of invasive cells for three independent experiments. **P<0.01 and ***P<0.001 as compared with controls. […] Squamous cell carcinoma (epidermoid A431 and head and neck FaDu) cells were stimulated with 100 pM of TGF-b1, then treated with 10 nM of peptide 16.2, P16, PA or CD109 for 24 hours. Cells were analysed by Flow cytometry and CD133 positive cell population, which represent cancer stem cell population, were quantified.

[3] = system: cancer stem cells (CD133 positive cells), head and neck FaDu; test: Flow cytometry of CD133 positive cells, FaDu; assay type: cell-based; conditions: 10 nM, 100 pM TGF-b1, 24 hours (FIG. 39)
Procedure: as §2

[4] = co-injected with bleomycin every second day for 28 days (FIG. 37)

Recombinant CD109: recombinant CD109 protein
SMAD1 phosphorylation in skin (immunohistochemistry) [1, 4]: enhancing | SMAD2 phosphorylation in skin (immunohistochemistry) [1, 4]: reduces | TGF-β expression in skin (immunohistochemistry) [1, 4]: reduces | extracellular matrix production (Fibronectin, α-sma, CTGF, Type-1 Collagen, immunohistochemistry) ([1]; co-injected with bleomycin every second day for 28 days, skin on day 28 (FIG. 36)): reduces | number of cancer stem cells (CD133 positive cells), A431 [2]: inhibit | number of cancer stem cells (CD133 positive cells), FaDu [3]: inhibit
